# Columns and labels:
# [1] = tested on: Jurkat; experiment: SRB antiproliferative assay, Jurkat; format: cell-based; conditions: Homo sapiens
# Procedure: Antiproliferative effects were determined by a sulforhodamine B (SRB) based protocol. For a typical screening experiment, 5,000-10,000 cells were inoculated into 100 μl medium per well of a 96-well microtiter plate as described previously. Briefly, after the inoculation, the microtiter plate was incubated at 37° C., 5% CO2, 95% air and 100% relative humidity for 24 h, prior to addition of experimental drugs. Some of the sample wells were fixed with 25 μl of 50% trichloroacetic acid (TCA) as a control of the cell population for each cell line at the time of drug addition (Tz). An aliquot of the frozen stock was thawed and diluted to the desired final maximum test-concentration with complete medium. […] The cells “stained” with SRB were solubilized with 10 mM trizma base, and the absorbance was read on an automated plate reader at a wavelength of 515-564 nm. The relative growth rate (%) was calculated for each of the compound concentrations according to the following formula: (Ti−Tz)/(C−Tz)×100 In the formula, time zero (Tz), control growth (C), and OD for different concentration of tested compounds (Ti). […] Values were calculated for each of these parameters if the level of activity was reached. However, if the effect was not reached or was exceeded, the value for that parameter was expressed as greater or less than the maximum or minimum concentration tested. […]
# [2] = tested on: HeLa S3 cells; experiment: Western blot, immunostaining and immunoprecipitation of cell cycle proteins, HeLa S3 cells; format: cell-based
# Excerpt: All immunocytochemistry experiments were visualized by confocal microscopy using a Zeiss 510 Meta laser scanning microscope (Carl Zeiss) equipped with a 63× objective lens, unless otherwise specified herein. Three lasers were utilized for excitation with the following band pass filter settings used for detection: Argon 488 nm (band pass 505-530), HeNe 543 nm (long pass 560) and 633 nm (long pass 650). All images were captured and analyzed using LSM 510 software included with the microscope (LSM Image Examiner™, Carl Zeiss).
# The synchronization at the G1/S border (more accurately at the beginning of S phase) was achieved by double thymidine block (DT). Briefly, exponentially growing cells are treated with 2.0 mM thymidine for 18 hours, followed by incubation for 11 hours in drug-free complete medium, by which time most cells are at mid-late G1 phase. The cells are then incubated for another 14 hours in 2.0 mM thymidine to arrest them at the G1/S border. To arrest cells at the G2/M phase, cells were maintained for 18 hours in complete medium containing nocodazole (50 ng/ml). Both these synchronization are reversible.
# Under the experimental conditions, some of the cells were still stuck at G2/M until 8 hour post-drug treatment. “Asynchr” denotes asynchronous cells. 0 hour is the end of nocodazole treatment (i.e., 18 hours in 50 ng/ml nocodazole). At 0 hour, cells were released into complete medium in the absence (control) or presence of 5 μM VR-23 for 2, 4, or 8 hours as indicated. […] Extracts prepared from HeLa S3 cells treated with VR-23 in early-S phase (0 hour post double thymidine treatment), G2/M (arrested by nocodazole), or late G1 (6 hour post nocodazole) were subjected to Western blotting with anti-PARP1 antibody to detect proteins associated with apoptotic activities.
# Evaluation of apoptosis in VR-23 treated and untreated control cells (FIG. 8). Treatment of cells in late G1 with VR-23 delayed their progression into S phase. HeLa S3 cells arrested in G2-M phase by nocodazole (50 ng/ml, 18 hours) were incubated in drug-free complete medium for 2, 4 or 6 hours (numbers in brackets), followed by incubation for 2 or 6 hours (+h) in the absence (control) (FIG. 8A) or presence (FIG. 8B) of 10 μM VR-23. […] By (6)+6 hours, most of the control cells already progressed into S phase, but VR-23-treated cells were still in G1 (long and short arrows, respectively). […] Under normal growth conditions, cyclin E expression peaks in late G1 and rapidly levels off as a cell enters S phase, at which time cyclin A expression rapidly increases. […] Thus cells treated with VR-23 were still in G1 phase because cyclin E was not degraded and cyclin A was not induced in a timely manner.
# HeLa S3 cells arrested at G1/S by DT were released into cell cycle for 1-3 hours in the absence (control) (FIG. 16A) or presence (FIG. 16B) of VR-23. Cells were then fixed and immunostained with antibodies specific for γ-tubulin and cyclin E, or DNA stained. […] In contrast, cyclin E was localized to the centrosomes by 3 hour post-DT in cells exposed to VR-23 (see inset boxes of FIG. 16B). […] It is noted that proteasomes are localized to the centrosomes^12,13.
# HeLa S3 cells synchronized at the G1/S border by DT were released into cell cycle at time 0 hour. Cells were then allowed to progress through S phase for 1 hour (FIG. 17A) or 3 hours (FIG. 17B) in the absence (control) or presence of VR-23. Plk1 was not localized to the centrosome at 1 hour post-DT either in VR-23 treated or untreated control cells. However, unlike in the control, all of the (amplified) centrosomes in cells exposed to VR-23 contained Plk1 by 3 hour post-DT. It was occasionally observed that one of the two centrosomes in untreated cells also contained plk1 at 3 hour post-DT (dotted arrow).
# HeLa S3 cells synchronized at G1/S by DT were released into normal growth medium at 0 hour for 1-3 hours in absence (control) (FIG. 18A) or the presence (FIG. 18B) of VR-23. […]
# [3] = 10 μM VR-23 after nocodazole release
# [4] = released from DT for 1-3 hours with VR-23
smiles,measurement,setting,value
"O=[N+]([O-])c1ccc(S(=O)(=O)N2CCN(c3ccnc4cc(Cl)ccc34)CC2)c([N+](=O)[O-])c1 [Compound 1, 7-Chloro-4-(4-(2,4-dinitrophenylsulfonyl)piperazin-1-yl)quinoline]",IC50,[1],800 ± 100 nM
same,Levels of cyclins B and E,"[2]; 10 μM VR-23, 2 hour post-treatment",higher in the VR-23 treated cells than the control
same,Levels of cyclin E and cyclin A (Western blot),"[2]; 10 μM VR-23, (6)+6 hours",a high level of cyclin E and a lack of detectable cyclin A
same,Cell cycle arrest (immunoprecipitation),[2]; [3],caused cell cycle arrest prior to mitotic checkpoint
same,Cell cycle arrest point and Cdk1 status,[2]; [3],arrested at prometaphase through the inactivation of Cdk1
same,PARP1 cleavage (Western blot),"[2]; VR-23 in early-S, G2/M or late G1",showed PARP1 cleavage
same,Centrosomal localization of Plk4,[2]; [4],disrupted
same,Cyclin E localization,[2]; [4],localized to the centrosome by 3 hour post-DT
same,Plk1 localization,[2]; released from DT for 1 or 3 hours with VR-23,localized to the centrosome by 3 hour post-DT
